Results on eleven molecules are retold here after patent US12227490B2, “Cereblon binding compounds, compositions thereof, and methods of treatment therewith” (Celgene Corporation, priority 2020, dated 2025).

The target in this assay is T1, AR (androgen receptor) protein in VCaP cells (Homo sapiens, UniProt P10275).
T1 construct: endogenous in cells; host or cells: VCaP cells
T1 sequence (P10275 1-920): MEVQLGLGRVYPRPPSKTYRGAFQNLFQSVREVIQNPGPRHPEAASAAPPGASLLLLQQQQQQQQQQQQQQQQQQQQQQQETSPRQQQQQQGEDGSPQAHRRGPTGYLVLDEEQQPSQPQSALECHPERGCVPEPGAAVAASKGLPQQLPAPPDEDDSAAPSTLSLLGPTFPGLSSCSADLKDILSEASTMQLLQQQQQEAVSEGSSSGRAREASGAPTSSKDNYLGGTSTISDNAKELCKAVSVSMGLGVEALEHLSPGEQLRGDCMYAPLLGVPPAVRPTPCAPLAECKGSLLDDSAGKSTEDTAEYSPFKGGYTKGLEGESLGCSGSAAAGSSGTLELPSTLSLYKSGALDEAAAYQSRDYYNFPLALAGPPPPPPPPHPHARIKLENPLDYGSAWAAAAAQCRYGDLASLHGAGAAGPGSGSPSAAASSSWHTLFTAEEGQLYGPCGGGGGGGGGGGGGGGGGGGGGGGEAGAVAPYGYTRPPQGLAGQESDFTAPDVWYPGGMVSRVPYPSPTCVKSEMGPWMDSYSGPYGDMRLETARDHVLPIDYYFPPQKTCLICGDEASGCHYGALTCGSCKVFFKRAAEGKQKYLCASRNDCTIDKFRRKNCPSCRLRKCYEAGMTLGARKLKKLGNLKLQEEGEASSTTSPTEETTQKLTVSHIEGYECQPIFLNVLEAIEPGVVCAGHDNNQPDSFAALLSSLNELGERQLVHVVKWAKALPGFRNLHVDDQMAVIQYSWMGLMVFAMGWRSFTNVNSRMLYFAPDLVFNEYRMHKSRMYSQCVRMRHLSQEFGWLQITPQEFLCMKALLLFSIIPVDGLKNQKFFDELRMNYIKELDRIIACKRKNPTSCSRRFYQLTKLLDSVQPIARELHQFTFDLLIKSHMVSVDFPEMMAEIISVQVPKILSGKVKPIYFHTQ
Kind of assay: VCAP AR Degradation Assay. The following applies: 24 h, AR ELISA; for DC50: concentration of compound when AR level = 50% of DMSO control; for remaining activity at up to 5 µM: top concentration 5 μM, read-out: Y (lowest measured AR level normalized to DMSO control, AR degradation efficiency). Type of assay: cell-based. The procedure: VCAP AR Degradation Assay. Test compounds were pre-dispensed into a Corning CellBind 96-well clear bottom plate (Cat #3300) using an acoustic dispenser to make a 10-point concentration series at 1:3 dilution for each compound. The final top concentration of each compound was 5 μM. DMSO at a final concentration of 0.1% was used as a control. VCaP cells cultured in DMEM with 8% fetal bovine serum (FBS) were seeded at 50K cells per well in a 200 μL volume into the compound plate and incubated at 37° C. in a CO2 incubator for 24 h. The medium was carefully removed from the cells and the plate was placed on ice. One hundred μL of ice-cold 1× cell lysis buffer from Cell Signaling Technologies (Cat #9803) was added to each well of the cells and the plate was incubated at 4° C. on a shaker for 1 h. Fifteen μL of cell lysate was used for AR ELISA detection using a PathScan Total Sandwich AR ELISA kit (Cell Signaling Technology, Cat #12580). AR levels in compound-treated wells were normalized to that of DMSO control and expressed as percent of control (PoC) (y). A Four Parameter Logistic Model (Sigmoidal Dose-Response Model) was used to determine the compound's DC50, and EC50, using the following equation: y=(A+((B−A)/(1+((C/x)^D)))) • A=YMin (lowest AR level normalized to DMSO control in response to compound treatment, as determined by curve fit) • B=YMax (maximum AR level as determined by curve fit) • C=EC50 • D=Hill Slope • x=compound concentration • EC50=the concentration of compound when y=(YMax−YMin)/2 • DC50=the concentration of the compound when y=50% of DMSO control (50% AR degradation) • y=AR protein level normalized to DMSO control
The lowest measured AR level normalized to DMSO control in response to compound treatment, termed Y value, was used to characterize the compound-mediated AR degradation efficiency.
For orientation: ELISA stands for enzyme-linked immunosorbent assay.

Each structure is given as a SMILES string. Where a name gives a salt, the structure may show the parent alone.

A word on the DC50: it is the concentration at which degradation of the target reaches its halfway point. The low end stands for degradation at low concentration, the high end for degradation only at high concentration. For the molecule `C[C@@H]1C[C@H](OCCO[C@H]2CC[C@H](N3C(=S)N(c4ccc(C#N)c(C(F)(F)F)c4)C(=O)C3(C)C)CC2)C[C@H](C)N1CC(=O)Nc1cccc2c(C3CCC(=O)NC3=O)nn(C)c12` (stereo partly drawn) [Cmpd 27, 2-((2R,4r,6S)-4-(2-(((trans)-4-(3-(4-Cyano-3-(trifluoromethyl)phenyl)-5,5-dimethyl-4-oxo-2-thioxoimidazolidin-1-yl)cyclohexyl)oxy)ethoxy)-2,6-dimethylpiperidin-1-yl)-N-(3-(2,6-dioxopiperidin-3-yl)-1-methyl-1H-indazol-7-yl)acetamide], the DC50 lay in the range of 2 to 5 nM and the remaining activity at up to 5 µM fell in the range of 25 to 30%.

On to `C[C@@H]1C[C@@H](CCO[C@H]2CC[C@H](N3C(=S)N(c4cnc(C#N)c(C(F)(F)F)c4)C(=O)C3(C)C)CC2)C[C@H](C)N1CC(=O)Nc1cccc2c(C3CCC(=O)NC3=O)nn(C)c12` (stereo partly drawn) [Cmpd 16, 2-((2R,4s,6S)-4-(2-(((trans)-4-(3-(6-Cyano-5-(trifluoromethyl)pyridin-3-yl)-5,5-dimethyl-4-oxo-2-thioxoimidazolidin-1-yl)cyclohexyl)oxy)ethyl)-2,6-dimethylpiperidin-1-yl)-N-(3-(2,6-dioxopiperidin-3-yl)-1-methyl-1H-indazol-7-yl)acetamide], for which the DC50 was less than 2 nM and the remaining activity at up to 5 µM lay in the range of 0 to 25%.

For the molecule `C[C@@H]1C[C@@H](CCO[C@H]2CC[C@H](N3C(=S)N(c4ccc(C#N)c(C(F)(F)F)c4)C(=O)C3(C)C)CC2)C[C@H](C)N1CC(=O)Nc1cccc2c(C3CCC(=O)NC3=O)nn(C)c12` (stereo partly drawn) [Cmpd 12, 2-((2R,4s,6S)-4-(2-((trans-4-(3-(4-Cyano-3-(trifluoromethyl)phenyl)-5,5-dimethyl-4-oxo-2-thioxoimidazolidin-1-yl)cyclohexyl)oxy)ethyl)-2,6-dimethylpiperidin-1-yl)-N-(3-(2,6-dioxopiperidin-3-yl)-1-methyl-1H-indazol-7-yl)acetamide hydrochloride], the DC50 was 2 to 5 nM and the remaining activity at up to 5 µM fell in the range of 0 to 25%.

As to `C[C@@H]1CN(CCCO[C@H]2CC[C@H](N3C(=S)N(c4ccc(C#N)c(C(F)(F)F)c4)C(=O)C3(C)C)CC2)C[C@H](C)N1CC(=O)Nc1cccc2c(C3CCC(=O)NC3=O)nn(C)c12` (stereo partly drawn) [Cmpd 8, 2-((2R,6S)-4-(3-((trans-4-(3-(4-Cyano-3-(trifluoromethyl)phenyl)-5,5-dimethyl-4-oxo-2-thioxoimidazolidin-1-yl)cyclohexyl)oxy)propyl)-2,6-dimethylpiperazin-1-yl)-N-(3-(2,6-dioxopiperidin-3-yl)-1-methyl-1H-indazol-7-yl)acetamide], the DC50 is less than 2 nM and the remaining activity at up to 5 µM was 25 to 30%.

On to `C[C@@H]1CN(CCCO[C@H]2CC[C@H](N3C(=S)N(c4ccc(C#N)c(Cl)c4)C(=O)C3(C)C)CC2)C[C@H](C)N1CC(=O)Nc1cccc2c(C3CCC(=O)NC3=O)nn(C)c12` (stereo partly drawn) [Cmpd 5, 2-((2R,6S)-4-(3-((trans-4-(3-(3-Chloro-4-cyanophenyl)-5,5-dimethyl-4-oxo-2-thioxoimidazolidin-1-yl)cyclohexyl)oxy)propyl)-2,6-dimethylpiperazin-1-yl)-N-(3-(2,6-dioxopiperidin-3-yl)-1-methyl-1H-indazol-7-yl)acetamide hydrochloride], for which the DC50 was less than 2 nM and the remaining activity at up to 5 µM lay within 30 to 50%.

On to `Cn1nc(C2CCC(=O)NC2=O)c2cccc(NC(=O)CN3CCN(CCC[C@H]4CC[C@H](N5C(=S)N(c6ccc(C#N)c(C(F)(F)F)c6)C(=O)C5(C)C)CC4)C[C@@H]3C(F)(F)F)c21` (stereo partly drawn) [Cmpd 18, 2-((R)-4-(3-((trans)-4-(3-(4-Cyano-3-(trifluoromethyl)phenyl)-5,5-dimethyl-4-oxo-2-thioxoimidazolidin-1-yl)cyclohexyl)propyl)-2-(trifluoromethyl)piperazin-1-yl)-N-(3-(2,6-dioxopiperidin-3-yl)-1-methyl-1H-indazol-7-yl)acetamide], for which the DC50 is 5 to 20 nM and the remaining activity at up to 5 µM was 25 to 30%.

For `Cn1nc(C2CCC(=O)NC2=O)c2cccc(NC(=O)CN3CCN(CCCO[C@H]4CC[C@H](N5C(=S)N(c6cnc(C#N)c(C(F)(F)F)c6)C(=O)C5(C)C)CC4)C[C@@H]3C(F)(F)F)c21` (stereo partly drawn) [Cmpd 20, 2-((R)-4-(3-(((trans)-4-(3-(6-Cyano-5-(trifluoromethyl)pyridin-3-yl)-5,5-dimethyl-4-oxo-2-thioxoimidazolidin-1-yl)cyclohexyl)oxy)propyl)-2-(trifluoromethyl)piperazin-1-yl)-N-(3-(2,6-dioxopiperidin-3-yl)-1-methyl-1H-indazol-7-yl)acetamide], the half-maximal degradation concentration (DC50) was in the range of 2 to 5 nM and the remaining activity at up to 5 µM was 0 to 25%.

In the case of `C[C@@H]1CN(CCO[C@H]2CC[C@H](N3C(=S)N(c4cnc(C#N)c(C(F)(F)F)c4)C(=O)C3(C)C)CC2)C[C@H](C)N1CC(=O)Nc1cccc2c(C3CCC(=O)NC3=O)nn(C)c12` (stereo partly drawn) [Cmpd 4, 2-((2R,6S)-4-(2-((trans-4-(3-(6-Cyano-5-(trifluoromethyl)pyridin-3-yl)-5,5-dimethyl-4-oxo-2-thioxoimidazolidin-1-yl)cyclohexyl)oxy)ethyl)-2,6-dimethylpiperazin-1-yl)-N-(3-(2,6-dioxopiperidin-3-yl)-1-methyl-1H-indazol-7-yl)acetamide hydrochloride], the DC50 is less than 2 nM and the remaining activity at up to 5 µM lay in the range of 25 to 30%.

For the molecule `C[C@@H]1CN(CCCO[C@H]2CC[C@H](N3C(=S)N(c4cnc(C#N)c(C(F)(F)F)c4)C(=O)C3(C)C)CC2)C[C@H](C)N1CC(=O)Nc1cccc2c(C3CCC(=O)NC3=O)nn(C)c12` (stereo partly drawn) [Cmpd 7, 2-((2R,6S)-4-(3-((trans-4-(3-(6-Cyano-5-(trifluoromethyl)pyridin-3-yl)-5,5-dimethyl-4-oxo-2-thioxoimidazolidin-1-yl)cyclohexyl)oxy)propyl)-2,6-dimethylpiperazin-1-yl)-N-(3-(2,6-dioxopiperidin-3-yl)-1-methyl-1H-indazol-7-yl)acetamide hydrochloride], the DC50 was less than 2 nM and the remaining activity at up to 5 µM is 0 to 25%.

`C[C@@H]1CN(CCC[C@H]2CC[C@H](N3C(=S)N(c4ccc(C#N)c(C(F)(F)F)c4)C(=O)C3(C)C)CC2)C[C@H](C)N1CC(=O)Nc1cccc2c(C3CCC(=O)NC3=O)nn(C)c12` (stereo partly drawn) [Cmpd 2, 2-((2R,6S)-4-(3-(trans-4-(3-(4-cyano-3-(trifluoromethyl)phenyl)-5,5-dimethyl-4-oxo-2-thioxoimidazolidin-1-yl)cyclohexyl)propyl)-2,6-dimethylpiperazin-1-yl)-N-(3-(2,6-dioxopiperidin-3-yl)-1-methyl-1H-indazol-7-yl)acetamide hydrochloride]: the DC50 fell in the range of 2 to 5 nM and the remaining activity at up to 5 µM lay in the range of 30 to 50%.

With `C[C@@H]1C[C@H](OCCC[C@H]2CC[C@H](N3C(=S)N(c4cnc(C#N)c(C(F)(F)F)c4)C(=O)C3(C)C)CC2)C[C@H](C)N1CC(=O)Nc1cccc2c(C3CCC(=O)NC3=O)nn(C)c12` (stereo partly drawn) [Cmpd 24, 2-((2R,4r,6S)-4-(3-((trans)-4-(3-(6-Cyano-5-(trifluoromethyl)pyridin-3-yl)-5,5-dimethyl-4-oxo-2-thioxoimidazolidin-1-yl)cyclohexyl)propoxy)-2,6-dimethylpiperidin-1-yl)-N-(3-(2,6-dioxopiperidin-3-yl)-1-methyl-1H-indazol-7-yl)acetamide], the half-maximal degradation concentration (DC50) was 5 to 20 nM and the remaining activity at up to 5 µM lay in the range of 0 to 25%.
